Laboratory results taken from PMC6751662, “Pharmacological and functional similarities of the human neuropeptide Y system in C. elegans challenges phylogenetic views on the FLP/NPR system” (Cell Communication and Signaling : CCS, 2019).

Assays:
Assay type in all cases: cell-based, C. elegans
[1] = target: T1, NPR-4b (Caenorhabditis elegans, UniProt A0A078BTK0); test: IP accumulation assay, endogenous Gαq + mock, NPR-4b; conditions: 1 h, HBSS + 20 mM LiCl, HEK293 receptor + empty vector, HTRF IP-One, mean of >=3 independent experiments
T1 sequence (A0A078BTK0 1-376): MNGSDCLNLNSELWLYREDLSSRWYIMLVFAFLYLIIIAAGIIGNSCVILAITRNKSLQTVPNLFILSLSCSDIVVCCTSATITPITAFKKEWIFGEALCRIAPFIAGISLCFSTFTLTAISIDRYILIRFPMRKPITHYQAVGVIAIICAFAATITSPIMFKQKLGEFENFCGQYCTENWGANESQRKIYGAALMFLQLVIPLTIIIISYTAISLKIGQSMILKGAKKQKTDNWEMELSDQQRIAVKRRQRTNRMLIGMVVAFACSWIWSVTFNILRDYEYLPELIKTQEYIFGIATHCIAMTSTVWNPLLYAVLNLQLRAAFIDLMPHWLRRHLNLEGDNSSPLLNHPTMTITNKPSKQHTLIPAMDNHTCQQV
Procedure: (§1) For measuring IP accumulation, HEK293 cells grown to 70–80% confluency in 6-well plates were transiently co-transfected using Metafectene Pro (2.5 μl/μg DNA; Biontex) with plasmids containing receptor and/or mock (empty pcDNA3.1) (for endogenous Gq-coupling) using 4 μg total DNA in a ratio of 3:1 following the manufacturer’s instructions. For testing Gα16- and GαΔ6qi4myr-coupling, plasmids encoding the corresponding Gα protein were co-transfected instead of mock. Gα16 is naturally promiscuous and stimulates the phospholipase C (PLC) pathway leading to IP production, while the exchange of the C-terminal four amino acids of Gαq for the corresponding residues of Gαi1 in the chimeric GαΔ6qi4myr confers the ability to couple to Gi/o protein-preferring receptors but still stimulate PLC, thus specifically redirecting downstream cellular signaling. 16 h post transfection, the cells were seeded into white 384-well plates at a density of 20,000 cells/well. Media was removed 24 h later and the cells were incubated with the indicated concentration of peptides for 1 h in HBSS + 20 mM LiCl. IP accumulation was measured with the HTRF-based IP-One Gq kit (Cisbio) on a microplate reader (Tecan Spark).
(§2) For in vitro activation, data is presented as mean ± SEM of at least three independent experiments conducted in technical triplicate. […]

[2] = target: T2, NPR-1 (Caenorhabditis elegans, UniProt Q18534); test: cAMP reporter gene assay, Gs (no forskolin), NPR-1; set-up: host or cells: HEK293; conditions: no forskolin, 4 h, transiently transfected HEK293, CRE-luciferase reporter, mean of >=3 independent experiments
T2 sequence (Q18534 1-457): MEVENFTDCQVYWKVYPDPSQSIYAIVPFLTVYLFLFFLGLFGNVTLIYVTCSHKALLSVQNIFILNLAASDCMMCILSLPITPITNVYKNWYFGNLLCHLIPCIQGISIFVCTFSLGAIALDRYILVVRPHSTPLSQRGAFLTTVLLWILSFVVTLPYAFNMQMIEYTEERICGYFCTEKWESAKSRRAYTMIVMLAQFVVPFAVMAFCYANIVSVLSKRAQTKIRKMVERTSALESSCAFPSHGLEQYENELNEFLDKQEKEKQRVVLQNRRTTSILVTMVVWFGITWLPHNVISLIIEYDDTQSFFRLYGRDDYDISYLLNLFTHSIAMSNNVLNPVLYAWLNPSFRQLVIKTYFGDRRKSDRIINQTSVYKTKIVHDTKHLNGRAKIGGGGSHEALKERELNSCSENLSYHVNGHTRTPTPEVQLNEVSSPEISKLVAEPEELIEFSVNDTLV
Procedure: Activation of Gs and Gi/o was assessed with a cAMP reporter gene assay. HEK293 cells grown to 70–80% confluency in 6-well plates were transiently co-transfected with vectors encoding the receptor and the cAMP reporter gene plasmid pGL4.29 [luc2P/CRE/Hygro] (Promega; 4 μg total, 1:1 ratio) using Metafectene Pro (3 μl/μg DNA; Biontex) following the manufacturer’s instructions. 16 h post transfection, the cells were seeded into white 384-well plates at a density of 20,000 cells/well. On the next day, the medium was removed and the cells were stimulated with 20 μl of peptide solution (or forskolin as positive control) in serum-free DMEM for 4 h. For measuring Gi/o activity, the peptide solutions additionally contained 1 μM forskolin to elevate cellular cAMP levels. After incubation, the luciferase substrate OneGlo in lysis buffer (Promega) was added and the luminescence was measured in a microplate reader Tecan Spark (Tecan). Data were analyzed with GraphPad Prism 5.03 and are shown as fold of basal or fold of forskolin in case of Gαi/o activity.
For in vitro activation, data is presented as mean ± SEM of at least three independent experiments conducted in technical triplicate. […] For the C. elegans NPRs, we considered the strongest response elicited by any of the peptides downstream of a particular receptor as the receptor’s maximal signal. This may or may not be the biological maximum that can be reached by the ‘true’ endogenous agonist. For the human receptors, the response to the established endogenous agonist reflected the maximal signal.

[3] = target: T3, NPR-3 (Caenorhabditis elegans, UniProt P90745); test: IP accumulation assay, co-transfected Gα16, NPR-3; conditions: 1 h, HBSS + 20 mM LiCl, HEK293 receptor + Gα16, HTRF IP-One, mean of >=3 independent experiments
T3 construct: expressed in transfected cells; host or cells: HEK293
T3 sequence (P90745 1-376): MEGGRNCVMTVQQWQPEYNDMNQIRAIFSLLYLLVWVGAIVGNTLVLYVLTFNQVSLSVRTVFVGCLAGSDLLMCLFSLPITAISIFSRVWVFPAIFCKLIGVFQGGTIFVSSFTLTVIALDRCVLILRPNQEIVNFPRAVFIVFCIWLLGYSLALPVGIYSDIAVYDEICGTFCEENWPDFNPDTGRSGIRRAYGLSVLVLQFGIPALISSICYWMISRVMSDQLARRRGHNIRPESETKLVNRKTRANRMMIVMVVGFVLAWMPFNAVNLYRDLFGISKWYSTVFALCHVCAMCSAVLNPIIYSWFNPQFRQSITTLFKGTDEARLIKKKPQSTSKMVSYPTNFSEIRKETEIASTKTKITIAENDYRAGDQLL
Procedure: as §1, §2

[4] = 0.1 nM peptide (so in the source)

IP assay endog. Gαq + mock, NPR-4b [1, 4]: 0.98 x-fold of basal | IP assay endog. Gαq + mock, NPR-4b ([1]; 10 µM peptide): 0.99 x-fold of basal | cAMP assay Gs, NPR-1 ([2]; 0.1 µM peptide): 1.12 x-fold of basal | cAMP assay Gs, NPR-1 ([2]; 10 µM peptide): 1.05 x-fold of basal | IP assay endog. Gαq + Gα16, NPR-3 [3, 4]: 0.93 x-fold of basal | IP assay endog. Gαq + Gα16, NPR-3 ([3]; 10 µM peptide): 0.81 x-fold of basal
Substance: APKPKFIRF-NH2 [FLP-5-1, C. elegans FMRFamide-like peptide, C-terminally amidated, synthesized by SPPS]
